Legend:
Assay in all cases: viability relative to DMSO control (fraction); higher = less drug effect (more viable cells)
[1] = test system: primary T-NHL patient cells (S058); details: 48 h
In short: (§1)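 The cells were primary mononuclear tumour cells, either fresh or cryopreserved, isolated by Ficoll from blood or bone marrow or derived from processed lymph node. Each well of a 384-well plate received 4 × 10^4 cells onto compounds pre-plated at five concentrations, with one well per concentration. The medium was RPMI-1640 with penicillin/streptomycin, L-glutamine and human serum, and plates stood at 37 °C and 5% CO2 for 48 h. Viability is reported as CellTiter-Glo luminescence relative to the median of 16 inner DMSO wells.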

[2] = test system: primary CLL patient cells (S031); details: 48 h
In short: as §1

[3] = test system: primary AML patient cells (S027); details: 0.0016 µM; 48 h
In short: as §1

[4] = test system: primary AML patient cells (S011); details: 48 h
In short: as §1

[5] = test system: primary DLBCL patient cells (S076); details: 48 h
In short: as §1

[6] = test system: primary AML patient cells (S037); details: 48 h
In short: as §1

[7] = test system: primary T-PLL patient cells (S008); details: 48 h
In short: as §1

[8] = test system: primary DLBCL patient cells (S049); details: 48 h
In short: as §1

[9] = test system: primary AML patient cells (S007); details: 48 h
In short: as §1

[10] = test system: primary CLL patient cells (S043); details: 48 h
In short: as §1

[11] = test system: primary AML patient cells (S012); details: 48 h
In short: as §1

[12] = test system: primary AML patient cells (S081); details: 48 h
In short: as §1

[13] = test system: primary MCL patient cells (S063); details: 48 h
In short: as §1

[14] = test system: primary MCL patient cells (S041); details: 48 h
In short: as §1

[15] = test system: primary AML patient cells (S006); details: 48 h
In short: as §1

[16] = test system: primary MCL patient cells (S068); details: 48 h
In short: as §1

[17] = test system: primary AML patient cells (S085); details: 48 h
In short: as §1

[18] = test system: primary AML patient cells (S056); details: 48 h
In short: as §1

[19] = test system: primary BL patient cells (S005); details: 48 h
In short: as §1

With Cc1nc(Nc2ncc(C(=O)Nc3c(C)cccc3Cl)s2)cc(N2CCN(CCO)CC2)n1 [Dasatinib] as the molecule, how does the viability ([1]; 0.0016 µM) read?
Its viability is 0.962.

And the viability ([1]; 0.008 µM)?
Its viability is 0.836.

What about the viability ([1]; 0.04 µM) of the same molecule?
Its viability is 0.861.

What about the viability ([1]; 0.2 µM) of the same molecule?
Its viability is 0.834.

What about the viability ([1]; 1 µM) of the same molecule?
Its viability is 0.855.

And the viability ([2]; 0.0016 µM)?
The viability was 0.944.

What about the viability ([2]; 0.008 µM) of the same molecule?
Its viability is 0.609.

What about the viability ([2]; 0.04 µM) of the same molecule?
The viability was 0.393.

And the viability ([2]; 0.2 µM)?
Its viability is 0.325.

And the viability ([2]; 1 µM)?
Its viability is 0.313.

And the viability [3]?
The viability was 1.06.

What about the viability ([4]; 0.0016 µM) of the same molecule?
Its viability is 1.06.

And the viability ([4]; 0.008 µM)?
The viability was 0.884.

And the viability ([4]; 0.04 µM)?
Its viability is 0.909.

And the viability ([4]; 0.2 µM)?
The viability was 0.882.

What about the viability ([4]; 1 µM) of the same molecule?
Its viability is 0.936.

And the viability ([5]; 0.0016 µM)?
Its viability is 0.835.

What about the viability ([5]; 0.008 µM) of the same molecule?
Its viability is 0.672.

And the viability ([5]; 0.04 µM)?
The viability was 0.628.

And the viability ([5]; 0.2 µM)?
The viability was 0.532.

What about the viability ([5]; 1 µM) of the same molecule?
Its viability is 0.535.

What about the viability ([6]; 0.0016 µM) of the same molecule?
Its viability is 1.04.

And the viability ([6]; 0.008 µM)?
The viability was 1.01.

And the viability ([6]; 0.04 µM)?
The viability was 1.

What about the viability ([6]; 0.2 µM) of the same molecule?
The viability was 0.982.

What about the viability ([6]; 1 µM) of the same molecule?
Its viability is 1.03.

What about the viability ([7]; 0.0016 µM) of the same molecule?
The viability was 1.

What about the viability ([7]; 0.008 µM) of the same molecule?
Its viability is 0.974.

And the viability ([7]; 0.04 µM)?
Its viability is 0.968.

And the viability ([7]; 0.2 µM)?
Its viability is 0.973.

And the viability ([7]; 1 µM)?
Its viability is 0.996.

And the viability ([8]; 0.0016 µM)?
Its viability is 0.952.

And the viability ([8]; 0.008 µM)?
The viability was 0.83.

What about the viability ([8]; 0.04 µM) of the same molecule?
Its viability is 0.814.

What about the viability ([8]; 0.2 µM) of the same molecule?
The viability was 0.497.

And the viability ([8]; 1 µM)?
Its viability is 0.33.

And the viability ([9]; 0.0016 µM)?
The viability was 0.89.

And the viability ([9]; 0.008 µM)?
Its viability is 0.964.

What about the viability ([9]; 0.04 µM) of the same molecule?
Its viability is 0.917.

And the viability ([9]; 0.2 µM)?
Its viability is 0.837.

What about the viability ([9]; 1 µM) of the same molecule?
The viability was 0.755.

What about the viability ([10]; 0.0016 µM) of the same molecule?
The viability was 1.31.

And the viability ([10]; 0.008 µM)?
Its viability is 1.2.

What about the viability ([10]; 0.04 µM) of the same molecule?
Its viability is 0.67.

What about the viability ([10]; 0.2 µM) of the same molecule?
The viability was 0.595.

And the viability ([10]; 1 µM)?
The viability was 0.547.

What about the viability ([11]; 0.0016 µM) of the same molecule?
The viability was 0.993.

What about the viability ([11]; 0.008 µM) of the same molecule?
Its viability is 0.917.

And the viability ([11]; 0.04 µM)?
Its viability is 1.01.

And the viability ([11]; 0.2 µM)?
The viability was 1.

And the viability ([11]; 1 µM)?
Its viability is 1.01.

And the viability ([12]; 0.0016 µM)?
The viability was 1.14.

What about the viability ([12]; 0.008 µM) of the same molecule?
Its viability is 1.01.

What about the viability ([12]; 0.04 µM) of the same molecule?
Its viability is 0.693.

What about the viability ([12]; 0.2 µM) of the same molecule?
Its viability is 0.54.

What about the viability ([12]; 1 µM) of the same molecule?
Its viability is 0.764.

And the viability ([13]; 0.0016 µM)?
Its viability is 1.

What about the viability ([13]; 0.008 µM) of the same molecule?
Its viability is 0.653.

What about the viability ([13]; 0.04 µM) of the same molecule?
Its viability is 0.245.

And the viability ([13]; 0.2 µM)?
Its viability is 0.151.

And the viability ([13]; 1 µM)?
The viability was 0.118.

And the viability ([14]; 0.0016 µM)?
Its viability is 0.903.

And the viability ([14]; 0.008 µM)?
The viability was 0.79.

And the viability ([14]; 0.04 µM)?
Its viability is 0.723.

And the viability ([14]; 0.2 µM)?
Its viability is 0.67.

What about the viability ([14]; 1 µM) of the same molecule?
The viability was 0.6.

What about the viability ([15]; 0.0016 µM) of the same molecule?
The viability was 0.961.

And the viability ([15]; 0.008 µM)?
Its viability is 0.912.

And the viability ([15]; 0.04 µM)?
Its viability is 0.88.

And the viability ([15]; 0.2 µM)?
The viability was 0.808.

And the viability ([16]; 0.0016 µM)?
Its viability is 0.912.

What about the viability ([16]; 0.008 µM) of the same molecule?
The viability was 0.671.

And the viability ([16]; 0.04 µM)?
The viability was 0.4.

What about the viability ([16]; 0.2 µM) of the same molecule?
Its viability is 0.341.

What about the viability ([16]; 1 µM) of the same molecule?
The viability was 0.357.

And the viability ([17]; 0.0016 µM)?
The viability was 0.943.

What about the viability ([17]; 0.008 µM) of the same molecule?
Its viability is 0.736.

And the viability ([17]; 0.04 µM)?
Its viability is 0.691.

And the viability ([17]; 0.2 µM)?
Its viability is 0.605.

And the viability ([17]; 1 µM)?
The viability was 0.91.

What about the viability ([18]; 0.0016 µM) of the same molecule?
The viability was 0.859.

What about the viability ([18]; 0.008 µM) of the same molecule?
Its viability is 1.03.

And the viability ([18]; 0.04 µM)?
Its viability is 0.748.

And the viability ([18]; 0.2 µM)?
The viability was 0.63.

What about the viability ([18]; 1 µM) of the same molecule?
The viability was 0.572.

What about the viability ([19]; 0.0016 µM) of the same molecule?
The viability was 0.917.

What about the viability ([19]; 0.008 µM) of the same molecule?
Its viability is 0.807.

What about the viability ([19]; 0.04 µM) of the same molecule?
The viability was 0.788.

What about the viability ([19]; 0.2 µM) of the same molecule?
Its viability is 0.7.

And the viability ([19]; 1 µM)?
Its viability is 0.697.

— the supplement of paper PMC10733146
